Measured values published in US5935954A, “Compounds with improved multi-drug resistance activity” (Vertex Pharmaceuticals Incorporated, priority 1997, dated 1999).

Each compound was assayed against FKBP12 (Homo sapiens, UniProt P62942) (assay: FKBP12 binding assay (inhibition of rotomase activity)). Conditions: apparent Ki.
Type: biochemical
Text: Preferably, the assay measures inhibition of FKBP12 rotomase activity. Such an assay has also been described by M. W. Harding et al., supra and by J. J. Siekierka et al., supra. In this assay the isomerization of an artificial substrate--N-succinyl-Ala-Ala-Pro-Phe-p-nitroanilide--is followed spectrophotometrically. The assay includes the cis form of the substrate, FKBP12, the inhibitor and chymotrypsin. Chymotrypsin is able to cleave p-nitroanilide from the trans form of the substrate, but not the cis form. Release of p-nitroanilide is measured.
The inhibition of FKBP rotomase activity by the preferred FKBP12 binding compounds present in the compositions of this invention was assayed. In this assay various quantities of FKBP12 binding compound (0nM-10 μM) were added to cis-N-succinyl-Ala-Ala-Pro-Phe-p-nitroanilide in the presence of FKBP12 and chymotrypsin. FKBP12 converts the cis form of the substrate to the trans form. This allows chymotrypsin to cleave p-nitroanilide from the substrate. Release of p-nitroanilide was measured spectrophotometrically. This assay allowed me to measure the change in the first order rate constant of the rotomase activity as a function of FKBP12 binding compound concentration and yielded an estimate of apparent Ki.

Chain of FKBP12 (P62942 whole entry, species assumed): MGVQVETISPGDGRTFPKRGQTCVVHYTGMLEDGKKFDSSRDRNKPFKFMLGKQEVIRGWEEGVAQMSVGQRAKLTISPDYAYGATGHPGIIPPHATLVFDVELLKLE

Row | Compound | Ki
1 | COCc1cccc(COC)c1-c1cncc([C@H](OC(=O)[C@@H]2CCCCN2C(=O)C(=O)C(C)(C)COC)/C(C)=C/[C@H]2CC[C@H](O)CC2)c1 [Compound 51] | > 10000 nM
2 | C=CCC/C=C(/c1cccnc1)c1ccc([C@@H](OC(=O)[C@@H]2CCCCN2C(=O)C(=O)C(C)(C)COC)/C(C)=C/C2CCN(C)CC2)s1 [Compound 55] | > 10000 nM
3 | C=CCC/C=C(/c1cccnc1)c1ccc([C@H](OC(=O)[C@@H]2CCCCN2C(=O)C(=O)C(C)(C)COC)/C(C)=C/C2CCN(C)CC2)s1 [Compound 56] | > 5000 nM
4 | CCOCc1cc2ccccc2n1-c1cccc([C@H](OC(=O)[C@@H]2CCCCN2C(=O)C(=O)C2(O)CCOCC2)/C(C)=C/[C@H]2CC[C@H](O)CC2)c1 [Compound 57] | 930 nM
5 | CCOCc1cc2ccccc2n1-c1cccc([C@H](OC(=O)[C@@H]2CCCCN2C(=O)C(=O)C(C)(C)COC)/C(C)=C/[C@H]2CC[C@H](O)CC2)c1 [Compound 58] | > 9000 nM
6 | CCOCc1cccc(COCC)c1-c1csc([C@@H](CCN2CCOCC2)OC(=O)[C@@H]2CCCCN2C(=O)C(=O)C(C)(C)C)c1 [Compound 63] | > 5000 nM
7 | CCOCc1cccc(COCC)c1-c1csc([C@H](CCN2CCOCC2)OC(=O)[C@@H]2CCCCN2C(=O)C(=O)C(C)(C)C)c1 [Compound 64] | 340 nM
8 | CCOCc1cc2ccccc2n1-c1cccc([C@H](OC(=O)[C@@H]2CCCCN2C(=O)C(=O)C2(O)CCOCC2)/C(C)=C/[C@H]2CC[C@H](O)CC2)c1 [Compound 65] | 490 nM
9 | CCOCc1cccc(COCC)c1-c1cncc(C(OC(=O)[C@@H]2CCCCN2C(=O)C(=O)C2CCOCC2)/C(C)=C/c2ccncc2)c1 (some centres unmarked) [Compound 68] | > 5000 nM
10 | C=CCC/C=C(\c1ccc([C@H](CCN2CCOCC2)OC(=O)[C@@H]2CCCCN2C(=O)C(=O)CC(C)C)s1)C1CCOCC1 [Compound 69] | 745 nM
11 | C=CCC/C=C(/c1cccnc1)c1ccc([C@@H](OC(=O)[C@@H]2CCCCN2C(=O)C(=O)CC(C)C)/C(C)=C/C2CCN(C)CC2)s1 [Compound 71] | 364 nM
12 | CCOCc1cccc(COCC)c1-c1cncc([C@@H](CCN2CCOCC2)OC(=O)[C@@H]2CCCCN2C(=O)C(=O)CC(C)C)c1 [Compound 73] | 718 nM
13 | CCCC/C=C(\c1cncc([C@@H](OC(=O)[C@@H]2CCCCN2C(=O)C(=O)C(C)C)/C(C)=C/C2CCN(C)CC2)c1)C1CCCCC1 [Compound 74] | 500 nM
14 | CCOCc1cccc(COCC)c1-c1cncc([C@H](CCN2CCOCC2)OC(=O)[C@@H]2CCCCN2C(=O)C(=O)CC(C)C)c1 [Compound 77] | 2100 nM
15 | CCOCc1cccc(COCC)c1-c1ccc([C@H](CCN2CCOCC2)OC(=O)[C@@H]2CCCCN2C(=O)C(=O)CC(C)C)s1 [Compound 84] | 2000 nM
16 | C=CCC/C=C(/c1cccnc1)c1ccc([C@H](CCN2CCOCC2)OC(=O)[C@@H]2CCCCN2C(=O)C(=O)c2cc(COC)ccc2C)s1 [Compound 101] | 500 nM
17 | CCOCc1cccc(COCC)c1-c1ccc([C@@H](CCN2CCOCC2)OC(=O)[C@@H]2CCCCN2C(=O)C(=O)c2cc(COC)ccc2C)s1 [Compound 102] | 700 nM
18 | CCCc1ccc(CCC)n1-c1cccc([C@H](CCN2CCOCC2)OC(=O)[C@@H]2CCCCN2C(=O)C(=O)C(C)(C)C(C)C)c1 [Compound 104] | 870 nM
19 | CCCc1ccc(CCC)n1-c1cccc([C@H](OC(=O)[C@@H]2CCCCN2C(=O)C(=O)C(C)(C)C(C)C)/C(C)=C/c2ccncc2)c1 [Compound 106] | 2100 nM
20 | CCCc1ccc(CCC)n1-c1cccc(C(OC(=O)[C@@H]2CCCCN2C(=O)C(=O)[C@@H]2CCCC[C@H]2C)/C(C)=C/c2ccncc2)c1 (some centres unmarked) [Compound 108] | 5100 nM
21 | CCCc1ccc(CCC)n1-c1cccc(C(OC(=O)[C@@H]2CCCCN2C(=O)C(=O)C(C)(C)C(C)C)/C(C)=C/c2ccncc2)c1 (some centres unmarked) [Compound 109] | > 10000 nM
22 | COC/C=C(\c1cncc([C@@H](CCN2CCOCC2)OC(=O)[C@@H]2CCCCN2C(=O)C(=O)[C@@H]2C[C@H](C(C)(C)OC)CC[C@H]2C)c1)C(C)C [Compound 124] | 1000 nM

These reach a lower Ki. Values come first.

Row | Ki | Compound
23 | 315 nM | CCOCc1cccc(COCC)c1-c1ccc([C@@H](CCN2CCOCC2)OC(=O)[C@@H]2CCCCN2C(=O)C(=O)CC(C)C)s1 [Compound 83]
24 | 270 nM | CCOCc1cccc(COCC)c1-c1cncc(C(OC(=O)[C@@H]2CCCCN2C(=O)C(=O)C(C)(C)C)/C(C)=C/c2ccncc2)c1 (some centres unmarked) [Compound 67]
25 | 230 nM | CCOCc1cccc(COCC)c1-c1cncc([C@H](CCN2CCOCC2)OC(=O)[C@@H]2CCCCN2C(=O)C(=O)C2(C)CCCCC2)c1 [Compound 80]
26 | 225 nM | C=CCC/C=C(/c1cccnc1)c1ccc([C@H](OC(=O)[C@@H]2CCCCN2C(=O)C(=O)CC(C)C)/C(C)=C/C2CCN(C)CC2)s1 [Compound 72]
27 | 189 nM | CCOCc1cccc(COCC)c1-c1cncc([C@@H](CCN2CCOCC2)OC(=O)[C@@H]2CCCCN2C(=O)C(=O)C(C)(C)C)c1 [Compound 81]
28 | 188 nM | CCCC/C=C(\c1cncc([C@H](OC(=O)[C@@H]2CCCCN2C(=O)C(=O)C(C)C)/C(C)=C/C2CCN(C)CC2)c1)C1CCCCC1 [Compound 75]
29 | 172 nM | CCC/C(=C/COC)c1cncc([C@H](CCN2CCOCC2)OC(=O)[C@@H]2CCCCN2C(=O)C(=O)C(C)(C)C(C)C)c1 [Compound 114]
30 | 150 nM | CCC/C(=C/COC)c1cncc([C@@H](CCN2CCOCC2)OC(=O)[C@@H]2CCCCN2C(=O)C(=O)[C@@H]2CCCC[C@H]2C)c1 [Compound 117]
31 | 130 nM | COC/C=C(\c1cncc([C@H](CCN2CCOCC2)OC(=O)[C@@H]2CCCCN2C(=O)C(=O)C(C)(C)C(C)C)c1)C(C)C [Compound 116]
32 | 100 nM | CCOCc1cccc(COCC)c1-c1csc([C@@H](CCN2CCOCC2)OC(=O)[C@@H]2CCCCN2C(=O)C(=O)C(C)(C)C)c1 [Compound 62]
33 | 85 nM | CCCCc1ccc(C)n1-c1cccc([C@@H](CCN2CCOCC2)OC(=O)[C@@H]2CCCCN2C(=O)C(=O)[C@@H]2C[C@H](OCC)CC[C@H]2C)c1 [Compound 121]
34 | 80 nM | CCCCc1ccc(C)n1-c1cccc([C@@H](CCN2CCOCC2)OC(=O)[C@@H]2CCCCN2C(=O)C(=O)[C@@H]2CCCC[C@H]2C)c1 [Compound 120]
35 | 77 nM | CCOCc1cccc(COCC)c1-c1cncc([C@@H](CCN2CCOCC2)OC(=O)[C@@H]2CCCCN2C(=O)C(=O)C2(C)CCCCC2)c1 [Compound 78]
36 | 70 nM | C=CCC/C=C(/c1cccnc1)c1ccc([C@H](OC(=O)[C@@H]2CCCCN2C(=O)C(=O)C(C)(C)C)/C(C)=C/C2CCN(C)CC2)s1 [Compound 53]
37 | 70 nM | COC/C=C(\c1cncc([C@@H](CCN2CCOCC2)OC(=O)[C@@H]2CCCCN2C(=O)C(=O)[C@@H]2CCCC[C@H]2C)c1)C(C)C [Compound 118]
38 | 64 nM | CCOc1ccc(OCC)c(-c2cncc([C@H](CCCc3ccccc3)OC(=O)[C@@H]3CCCCN3C(=O)C(=O)c3cc(OC)c(OC)c(OC)c3)c2)c1 [Compound 88]

Row | Ki | Compound
39 | 62 nM | CCC/C=C(\c1cncc([C@H](OC(=O)[C@@H]2CCCCN2C(=O)C(=O)C(C)(C)C(C)C)/C(C)=C/c2ccncc2)c1)C1CCCCC1 [Compound 98]
40 | 57 nM | COC/C=C(\c1cncc([C@H](OC(=O)[C@@H]2CCCCN2C(=O)C(=O)CC(C)C)/C(C)=C/[C@H]2CC[C@H](O)CC2)c1)C1CCCCC1 [Compound 60]
41 | 55 nM | C=CCC/C=C(\c1ccc([C@@H](CCN2CCOCC2)OC(=O)[C@@H]2CCCCN2C(=O)C(=O)CC(C)C)s1)C1CCOCC1 [Compound 66]
42 | 45 nM | C=CCC/C=C(\c1ccc([C@@H](CCN2CCOCC2)OC(=O)[C@@H]2CCCCN2C(=O)C(=O)C(C)(C)C)s1)C1CCOCC1 [Compound 70]
43 | 44 nM | CCOCc1cccc(COCC)c1-c1ccc([C@@H](CCN2CCOCC2)OC(=O)[C@@H]2CCCCN2C(=O)C(=O)C(C)(C)C(C)C)s1 [Compound 93]
44 | 44 nM | COC/C=C(\c1cncc([C@@H](CCN2CCOCC2)OC(=O)[C@@H]2CCCCN2C(=O)C(=O)C(C)(C)C(C)C)c1)C(C)C [Compound 115]
45 | 32 nM | CCC/C=C(/c1cccnc1)c1cccc(C(CCN2CCOCC2)OC(=O)[C@@H]2CCCCN2C(=O)C(=O)C(C)(C)C(C)C)c1 (some centres unmarked) [Compound 92]
46 | 32 nM | CCCCc1ccc(C)n1-c1cccc([C@@H](CCN2CCOCC2)OC(=O)[C@@H]2CCCCN2C(=O)C(=O)C(C)(C)C(C)C)c1 [Compound 122]
47 | 28 nM | C=CCC/C=C(/c1cccnc1)c1ccc([C@@H](CCN2CCOCC2)OC(=O)[C@@H]2CCCCN2C(=O)C(=O)C2(C)CCCCC2)s1 [Compound 96]
48 | 21 nM | CCCc1ccc(CCC)n1-c1cccc([C@@H](CCN2CCOCC2)OC(=O)[C@@H]2CCCCN2C(=O)C(=O)C(C)(C)C(C)C)c1 [Compound 103]
49 | 16 nM | CCOCc1cc2ccccc2n1-c1cccc([C@@H](CCN2CCOCC2)OC(=O)[C@@H]2CCCCN2C(=O)C(=O)C(C)(C)C(C)C)c1 [Compound 94]
50 | 14 nM | CCOCc1cc2ccccc2n1-c1cccc([C@@H](CCN2CCOCC2)OC(=O)[C@@H]2CCCCN2C(=O)C(=O)C2(C)CCCCC2)c1 [Compound 86]
51 | 14 nM | C=CCC/C=C(\c1ccc([C@@H](CCN2CCOCC2)OC(=O)[C@@H]2CCCCN2C(=O)C(=O)C2(O)CCCCC2)s1)C1CCOCC1 [Compound 95]
52 | 2.3 nM | C=CCC/C=C(\c1ccc([C@H](CCN2CCOCC2)OC(=O)[C@@H]2CCCCN2C(=O)C(=O)C2(C)CCCCC2)s1)C1CCOCC1 [Compound 87]
53 | 1 nM | C=CCC/C=C(/c1cccnc1)c1ccc([C@@H](CCN2CCOCC2)OC(=O)[C@@H]2CCCCN2C(=O)C(=O)C2(C)CCCCC2)s1 [Compound 85]
